Here are results for two compounds from article PMC7801313, “Effect of lurbinectedin on the QTc interval in patients with advanced solid tumors: an exposure–response analysis” (Cancer Chemotherapy and Pharmacology, 2020).

Data set [1] has as its system patients with advanced solid tumors. The data set can be described thus: QT evaluation study, by time point ECG analysis. It counts as in vivo, human. As to conditions: before vs after prophylactic palonosetron 0.25 mg i.v., cycle 1 day 1. On the procedure:
This was a QT evaluation study (EudraCT No. 2015-000206-18; ClinicalTrials.gov: NCT02451007) performed at a subset of sites participating in a multicenter, open-label, exploratory, phase II basket clinical trial (EudraCT No: 2014-003773-42; ClinicaTrials.gov: NCT02454972) conducted in patients with selected advanced solid tumors. The schedule used in this QT evaluation study was that evaluated in the basket trial: lurbinectedin 3.2 mg/m^2 given as a 1-h i.v. infusion q3wk.
A screening ECG was collected between day -10 and day -2 before the first lurbinectedin infusion (day 1 of cycle 1) and transmitted to the central ECG laboratory to confirm the patient’s eligibility.
On day 1 of cycle 1, two baseline triplicate ECGs (three 10-s digital ECGs in close succession) were collected: one before administration of prophylactic medication or pre-dose 1, and the other after antiemetic prophylactic medication (palonosetron 0.25 mg i.v.) and before the start of the lurbinectedin infusion or pre-dose 2 (also on cycle 2).
In cycle 1 and cycle 2, the following triplicate ECGs were collected 5–10 min before their time-matched PK time points: 5 min before end of the lurbinectedin infusion (EOI), 30 min, 1, 3, 24, 72 (only on cycle 1), and 168 h after EOI.
A 12-lead automated digital ECG recorder [Mortara Instrument (Milwaukee, WI, USA) ELI-150 ECG 12-lead digital recorder] was provided by a third-party central ECG laboratory (eResearchTechnology, Inc., Philadelphia, PA, USA). Analysis and reporting of ECG data were performed by a limited number of skilled readers who were blinded to treatment time point. ECG review of a particular patient was performed by a single reader. Interval duration measurements were collected using computer-assisted caliper placements on three consecutive beats. A cardiologist then verified the interval durations and performed the morphology analysis, noting any T-U wave complex compatible with an effect on cardiac repolarization. The ECG analysis was conducted in Lead II or in Lead V5 if Lead II was not analyzable. If Lead V5 was not analyzable, then Lead V2 was used, and followed by the most appropriate lead if necessary. The mean of triplicate ECG measures at each time point for each patient was used for analyses.
Fridericia’s formula [6] is currently considered the most accurate method for correcting the effect of HR on QT interval [7], and was used as the main method for HR correction for QT (QTcF). Nevertheless, graphical inspection of QTcF and QT corrected by Bazett’s formula (QTcB) versus RR interval plots and statistical comparison of resulting squared linear regression slopes (R^2) was performed.
The primary endpoint was the change in QTc corrected by the Fridericia’s formula (ΔQTcF) between each scheduled post-baseline ECG time point and baseline at cycle 1. A patient was considered evaluable for the primary endpoint if he/she had baseline and one or more post-baseline ECG assessments.
Secondary endpoints were the ΔQTcF/lurbinectedin plasma concentration relationship, and change in other ECG parameters (i.e., HR, QRS, and PR).
The primary comparison was ΔQTcF at each ECG time point. A non-inferiority criterion of 20 ms was used to establish the absence of post-baseline QTc prolongation when compared to baseline. An analysis of variance model with mixed effects was fitted, with ΔQTc data as the dependent variable and ECG time point as the fixed effects, and patient as random effect.
Using the estimated least square means (LSM) and intra-patient standard deviation (Std) obtained from this model, a two-sided 90% confidence interval (CI) was calculated for each LSM ΔQTc. Non-inferiority was to be concluded if the upper bound (UB) of the one-sided 95% CI fell below 20 ms at each ECG time point.

In data set [2] the test system is patients. The settings on record: cited from earlier work.

As for `O=C1c2cccc3c2[C@H](CCC3)CN1[C@@H]1CN2CCC1CC2` [prophylactic medication, palonosetron, reference compound], in data set [1], the “difference between mean pre-dose 1 and mean pre-dose 2 QTcF” value worked out at 1.3 ms.
Consider `COc1cc2c(cc1O)CCN[C@]21CS[C@@H]2c3c(OC(C)=O)c(C)c4c(c3[C@H](COC1=O)N1[C@@H]2[C@H]2c3c(cc(C)c(OC)c3O)C[C@@H]([C@@H]1O)N2C)OCO4` [trabectedin], for which, in data set [2] (3-h i.v. infusion, largest increases at 4 h after start of infusion), the heart rate change entry is listed as “heart rate increased slightly”. The cardiac risk profile entry in data set [2] was “low cardiac risk profile”.
